Laboratory results taken from patent US11655235B2, “Pyrrolidine and piperidine compounds” (YUHAN CORPORATION, priority 2019, dated 2023).

Columns and labels:
Format in all cases: biochemical
recombinant human PREP = biological target: T1, recombinant human PREP (Homo sapiens, UniProt P48147); assay: PREP inhibition, fluorogenic substrate Z-Gly-Pro-AMC; conditions: Inhibitory Activity (IC50, nM) PREP, recombinant human PREP
T1 construct: purchased R&D System
T1 sequence (P48147 1-710): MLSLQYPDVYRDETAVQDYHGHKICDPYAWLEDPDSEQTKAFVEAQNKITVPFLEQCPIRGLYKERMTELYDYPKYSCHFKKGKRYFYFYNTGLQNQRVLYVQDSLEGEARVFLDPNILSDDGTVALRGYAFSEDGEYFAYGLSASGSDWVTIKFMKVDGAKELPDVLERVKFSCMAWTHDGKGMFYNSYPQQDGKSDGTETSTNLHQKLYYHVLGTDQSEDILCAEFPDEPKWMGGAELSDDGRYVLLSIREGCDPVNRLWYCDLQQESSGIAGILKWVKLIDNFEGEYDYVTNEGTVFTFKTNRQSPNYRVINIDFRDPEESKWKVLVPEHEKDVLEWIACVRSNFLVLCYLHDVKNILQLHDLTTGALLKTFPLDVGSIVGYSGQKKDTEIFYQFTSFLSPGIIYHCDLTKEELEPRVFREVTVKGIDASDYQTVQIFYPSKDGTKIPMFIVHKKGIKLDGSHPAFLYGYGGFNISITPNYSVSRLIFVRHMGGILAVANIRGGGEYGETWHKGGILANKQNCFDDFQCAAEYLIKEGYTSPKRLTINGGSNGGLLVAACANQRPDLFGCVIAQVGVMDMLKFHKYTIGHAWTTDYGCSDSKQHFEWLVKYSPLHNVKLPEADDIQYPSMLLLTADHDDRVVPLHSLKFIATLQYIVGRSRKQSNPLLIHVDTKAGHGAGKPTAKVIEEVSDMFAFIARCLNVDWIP
Summary of the method: (§1)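 Enzyme per reaction: 50 ng DPP9, 20 ng DPP8, 10 ng each DPP7 and PREP. Compounds were serially diluted (8 points, up to 0.5% DMSO) and incubated at 25 °C.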

recombinant human DPP7 = biological target: T2, recombinant human DPP7 (Homo sapiens, UniProt Q9UHL4); assay: DPP7 inhibition, fluorogenic substrate Lys-Pro-AMC; conditions: recombinant human DPP7
T2 construct: purchased R&D Systems
Summary of the method: as §1

DPP4 = DPP4 (Homo sapiens, UniProt P27487); assay: DPP4 inhibition, fluorogenic substrate H-Gly-Pro-AMC; set-up: purchased R&D Systems; conditions: recombinant human DPP4
Sequence of DPP4 (P27487 whole entry): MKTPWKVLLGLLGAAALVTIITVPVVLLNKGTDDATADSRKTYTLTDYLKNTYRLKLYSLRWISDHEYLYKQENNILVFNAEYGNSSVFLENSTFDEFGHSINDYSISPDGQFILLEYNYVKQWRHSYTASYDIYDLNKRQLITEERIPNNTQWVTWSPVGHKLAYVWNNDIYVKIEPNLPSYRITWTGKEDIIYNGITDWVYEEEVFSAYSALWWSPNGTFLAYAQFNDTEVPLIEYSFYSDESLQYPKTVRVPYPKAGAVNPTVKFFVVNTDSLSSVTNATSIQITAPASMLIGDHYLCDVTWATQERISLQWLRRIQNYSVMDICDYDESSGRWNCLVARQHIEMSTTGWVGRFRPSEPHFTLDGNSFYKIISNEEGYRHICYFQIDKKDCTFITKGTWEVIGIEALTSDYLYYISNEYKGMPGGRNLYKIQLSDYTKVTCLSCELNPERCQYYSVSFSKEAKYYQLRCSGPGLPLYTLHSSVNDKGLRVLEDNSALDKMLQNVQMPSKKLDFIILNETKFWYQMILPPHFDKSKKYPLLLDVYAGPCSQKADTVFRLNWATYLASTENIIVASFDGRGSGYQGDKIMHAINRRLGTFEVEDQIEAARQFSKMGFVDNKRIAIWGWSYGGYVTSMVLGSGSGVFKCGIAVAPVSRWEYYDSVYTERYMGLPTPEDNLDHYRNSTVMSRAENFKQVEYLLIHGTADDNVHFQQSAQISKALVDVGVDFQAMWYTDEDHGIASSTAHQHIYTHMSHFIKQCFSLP

Recombinant human FAP = biological target: T3, Recombinant human FAP (Homo sapiens, UniProt Q12884); assay: FAP inhibition, fluorogenic substrate Z-Gly-Pro-AMC; conditions: recombinant human FAP, substrate Z-Gly-Pro-AMC
T3 construct: purchased R&D systems
T3 sequence (Q12884 1-760): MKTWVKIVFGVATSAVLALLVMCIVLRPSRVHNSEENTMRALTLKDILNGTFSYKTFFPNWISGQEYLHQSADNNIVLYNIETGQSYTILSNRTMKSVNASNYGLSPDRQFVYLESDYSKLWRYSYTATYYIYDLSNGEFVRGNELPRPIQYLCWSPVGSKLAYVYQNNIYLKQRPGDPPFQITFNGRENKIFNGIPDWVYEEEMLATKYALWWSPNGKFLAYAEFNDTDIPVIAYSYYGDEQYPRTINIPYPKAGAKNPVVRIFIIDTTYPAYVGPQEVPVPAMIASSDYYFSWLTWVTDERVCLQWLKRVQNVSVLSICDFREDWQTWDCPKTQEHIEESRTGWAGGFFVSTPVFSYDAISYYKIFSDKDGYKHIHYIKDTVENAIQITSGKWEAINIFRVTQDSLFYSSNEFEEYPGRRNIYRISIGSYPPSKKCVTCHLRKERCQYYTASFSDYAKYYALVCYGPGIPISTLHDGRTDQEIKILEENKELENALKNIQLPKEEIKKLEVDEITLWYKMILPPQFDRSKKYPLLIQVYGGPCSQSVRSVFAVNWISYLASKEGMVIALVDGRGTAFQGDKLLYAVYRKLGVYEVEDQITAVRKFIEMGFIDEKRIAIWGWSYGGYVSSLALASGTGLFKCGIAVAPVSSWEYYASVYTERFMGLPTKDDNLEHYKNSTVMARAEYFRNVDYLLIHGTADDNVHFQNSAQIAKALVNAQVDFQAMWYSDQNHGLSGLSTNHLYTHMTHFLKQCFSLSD
Summary of the method: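 Recombinant human FAP, 10 ng per reaction, in 50 mM Tris pH 7.5 with 1 M NaCl and 1 mg/ml BSA at 25° C; substrate Z-Gly-Pro-AMC, ≤0.1% DMSO. AMC fluorescence read at ex 380/em 460 nm; % signal-rate decrease vs no-inhibitor control, 8-point curves fitted to a four-parameter logistic for IC50.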

recombinant human DPP9 = biological target: T4, recombinant human DPP9 (Homo sapiens, UniProt Q86TI2); assay: DPP9 inhibition, fluorogenic substrate H-Gly-Pro-AMC; conditions: recombinant human DPP9
T4 construct: purchased R&D Systems
T4 sequence (Q86TI2 whole entry): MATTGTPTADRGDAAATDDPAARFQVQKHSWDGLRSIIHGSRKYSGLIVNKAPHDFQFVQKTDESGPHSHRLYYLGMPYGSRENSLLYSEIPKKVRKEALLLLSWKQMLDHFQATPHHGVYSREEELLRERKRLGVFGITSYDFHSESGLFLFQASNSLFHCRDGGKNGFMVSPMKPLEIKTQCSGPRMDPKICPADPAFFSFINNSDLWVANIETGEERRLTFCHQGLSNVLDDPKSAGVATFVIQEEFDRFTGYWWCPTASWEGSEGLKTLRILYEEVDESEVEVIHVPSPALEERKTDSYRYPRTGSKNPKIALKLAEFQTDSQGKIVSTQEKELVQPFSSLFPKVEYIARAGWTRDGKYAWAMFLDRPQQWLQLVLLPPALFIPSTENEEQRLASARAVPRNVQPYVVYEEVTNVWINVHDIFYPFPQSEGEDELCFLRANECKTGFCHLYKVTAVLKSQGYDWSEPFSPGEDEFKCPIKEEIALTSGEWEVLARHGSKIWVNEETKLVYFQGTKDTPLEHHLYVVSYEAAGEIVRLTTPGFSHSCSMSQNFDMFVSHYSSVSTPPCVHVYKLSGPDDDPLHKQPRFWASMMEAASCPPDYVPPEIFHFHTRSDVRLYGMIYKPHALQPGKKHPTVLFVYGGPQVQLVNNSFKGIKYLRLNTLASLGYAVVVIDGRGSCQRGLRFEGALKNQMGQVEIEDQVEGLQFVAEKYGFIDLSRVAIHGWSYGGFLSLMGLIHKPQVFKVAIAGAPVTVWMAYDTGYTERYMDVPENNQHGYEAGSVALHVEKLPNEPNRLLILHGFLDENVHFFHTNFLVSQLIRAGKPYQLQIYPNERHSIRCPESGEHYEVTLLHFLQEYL
Summary of the method: as §1

recombinant human DPP8 = biological target: T5, recombinant human DPP8 (Homo sapiens, UniProt Q6V1X1); assay: DPP8 inhibition, fluorogenic substrate Z-Ala-Pro-AMC; conditions: recombinant human DPP8
T5 construct: purchased PBS Bioscience
T5 sequence (Q6V1X1 whole entry): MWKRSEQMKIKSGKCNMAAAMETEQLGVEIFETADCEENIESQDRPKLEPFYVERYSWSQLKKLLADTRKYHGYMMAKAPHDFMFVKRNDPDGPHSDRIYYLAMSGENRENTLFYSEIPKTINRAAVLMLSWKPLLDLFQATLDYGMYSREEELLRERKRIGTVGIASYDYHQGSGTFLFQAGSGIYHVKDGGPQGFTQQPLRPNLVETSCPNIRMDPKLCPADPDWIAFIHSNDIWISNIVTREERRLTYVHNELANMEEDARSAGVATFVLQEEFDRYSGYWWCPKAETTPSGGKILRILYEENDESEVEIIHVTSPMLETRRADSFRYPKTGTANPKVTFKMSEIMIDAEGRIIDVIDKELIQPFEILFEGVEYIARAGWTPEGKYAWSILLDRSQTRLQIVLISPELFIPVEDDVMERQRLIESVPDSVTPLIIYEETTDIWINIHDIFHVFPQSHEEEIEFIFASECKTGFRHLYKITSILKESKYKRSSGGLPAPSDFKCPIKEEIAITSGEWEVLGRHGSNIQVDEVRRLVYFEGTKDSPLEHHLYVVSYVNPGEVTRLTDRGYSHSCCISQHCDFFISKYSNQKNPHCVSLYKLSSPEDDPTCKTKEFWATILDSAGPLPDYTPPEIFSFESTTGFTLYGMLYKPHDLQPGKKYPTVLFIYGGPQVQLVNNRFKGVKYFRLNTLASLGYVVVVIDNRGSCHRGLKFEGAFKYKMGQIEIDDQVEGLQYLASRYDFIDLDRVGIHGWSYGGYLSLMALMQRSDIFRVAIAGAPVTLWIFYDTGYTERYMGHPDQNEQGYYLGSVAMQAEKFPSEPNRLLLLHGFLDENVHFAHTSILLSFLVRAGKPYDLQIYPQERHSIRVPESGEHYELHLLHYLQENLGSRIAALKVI
Summary of the method: as §1

IC50 (recombinant human PREP) [nM]	IC50 (recombinant human DPP7) [µM]	IC50 (DPP4) [µM]	IC50 (Recombinant human FAP) [µM]	IC50 (recombinant human DPP9) [µM]	IC50 (recombinant human DPP8) [µM]	SMILES
500	1.87	> 10	0.0031	8.2	> 100	CN(c1cnc2ccccc2c1)C1CCN(CC(=O)N2C[C@@H](F)C[C@H]2C#N)CC1 [Example 316, (2S,4S)-4-fluoro-1-[2-[4-[methyl(3-quinolyl)amino]-1-piperidyl]acetyl]pyrrolidine-2-carbonitrile]
299	1.85	> 10	0.0027	7.07	> 100	CN(c1cc2ccccc2cn1)C1CCN(CC(=O)N2C[C@@H](F)C[C@H]2C#N)CC1 [Example 317, (2S,4S)-4-fluoro-1-[2-[4-[3-isoquinolyl(methyl)amino]-1-piperidyl]acetyl]pyrrolidine-2-carbonitrile]
503	1.32	> 10	0.0018	5.04	3.82	CN(c1ccc2ccncc2c1)C1CCN(CC(=O)N2C[C@@H](F)C[C@H]2C#N)CC1 [Example 319, (2S,4S)-4-fluoro-1-[2-[4-[7-isoquinolyl(methyl)amino]-1-piperidyl]acetyl]pyrrolidine-2-carbonitrile]
8500	1.19	7.39	0.0593	6.52	11.5	N#C[C@@H]1C[C@H](F)CN1C(=O)CN1CCC(Nc2cccc3sccc23)CC1 [Example 336, (2S,4S)-1-(2-(4-(benzo[b]thiophen-4-ylamino)piperidin-1-yl)acetyl)-4-fluoropyrrolidine-2-carbonitrile]
2540	0.571	8.18	0.0078	2.29	7.88	N#C[C@@H]1C[C@H](F)CN1C(=O)CN1CCC(Nc2ccnc3ccc(F)cc23)CC1 [Example 337, (2S,4S)-4-fluoro-1-[2-[4-[(6-fluoro-4-quinolyl)amino]-1-piperidyl]acetyl]pyrrolidine-2-carbonitrile]
1450	0.809	6.89	0.0065	2.94	8.33	N#C[C@@H]1C[C@H](F)CN1C(=O)CN1CCC(Nc2ccnc3ccc(Cl)cc23)CC1 [Example 338, (2S,4S)-1-[2-[4-[(6-chloro-4-quinolyl)amino]-1-piperidyl]acetyl]-4-fluoro-pyrrolidine-2-carbonitrile]
3590	0.555	8.79	0.0114	> 30	> 10	N#C[C@@H]1C[C@H](F)CN1C(=O)CN1CCC(Nc2cncc3ccccc23)CC1 [Example 339, (2S,4S)-4-fluoro-1-[2-[4-(4-isoquinolylamino)-1-piperidyl]acetyl]pyrrolidine-2-carbonitrile]

Second part, the molecule before the results:

SMILES	IC50 (recombinant human PREP) [nM]	IC50 (recombinant human DPP7) [µM]	IC50 (DPP4) [µM]	IC50 (Recombinant human FAP) [µM]	IC50 (recombinant human DPP9) [µM]	IC50 (recombinant human DPP8) [µM]
N#C[C@@H]1CCCN1C(=O)CN1CC[C@H](Nc2ccnc3c(C(F)(F)F)cccc23)C1 [Example 270, (2S)-1-[2-[(3S)-3-[[8-(trifluoromethyl)-4-quinolyl]amino]pyrrolidin-1-yl]acetyl]pyrrolidine-2-carbonitrile]	10900	0.591	> 10	0.0013	19.2	44
N#C[C@@H]1C[C@H](F)CN1C(=O)CN1CC[C@H](Nc2ccnc3c(C(F)(F)F)cccc23)C1 [Example 271, (2S,4S)-4-fluoro-1-[2-[(3S)-3-[[8-(trifluoromethyl)-4-quinolyl]amino]pyrrolidin-1-yl]acetyl]pyrrolidine-2-carbonitrile]	3740	0.213	3.79	0.0014	4.41	7.99
COc1ccc2nccc(O[C@H]3CCN(CC(=O)N4C[C@@H](F)C[C@H]4C#N)C3)c2c1 [Example 299, (2S,4S)-4-fluoro-1-[2-[(3S)-3-[(6-methoxy-4-quinolyl)oxy]pyrrolidin-1-yl]acetyl]pyrrolidine-2-carbonitrile]	1410	9.84	> 10	0.0017	8.19	13.1
COc1cc2nccc(O[C@H]3CCN(CC(=O)N4C[C@@H](F)C[C@H]4C#N)C3)c2cc1OC [Example 300, (2S,4S)-4-fluoro-1-[2-[(3S)-3-[(6,7-dimethoxy-4-quinolyl)oxy]pyrrolidin-1-yl]acetyl]pyrrolidine-2-carbonitrile]	4890	2.93	> 10	0.0019	12.1	17.8
N#C[C@@H]1CCCN1C(=O)CN1CCC(NC(=O)c2cccc3cccnc23)CC1 [Example 301, N-[1-[2-oxo-2-[(2S)-2-cyanopyrrolidin-1-yl]ethyl]-4-piperidyl]quinoline-8-carboxamide]	36000	1.56	8.13	0.0695	> 100	> 100
CN(c1ccc2ncccc2c1)C1CCN(CC(=O)N2CCC[C@H]2C#N)CC1 [Example 310, (2S)-1-[2-[4-[methyl(6-quinolyl)amino]-1-piperidyl]acetyl]pyrrolidine-2-carbonitrile]	740	4.33	> 10	0.0053	66.4	> 100
CN(c1ccc2cccnc2c1)C1CCN(CC(=O)N2CCC[C@H]2C#N)CC1 [Example 311, (2S)-1-[2-[4-[methyl(7-quinolyl)amino]-1-piperidyl]acetyl]pyrrolidine-2-carbonitrile]	4350	2.49	> 10	0.014	96.9	> 100
CN(c1cccc2cnccc12)C1CCN(CC(=O)N2CCC[C@H]2C#N)CC1 [Example 313, (2S)-1-[2-[4-[5-isoquinolyl(methyl)amino]-1-piperidyl]acetyl]pyrrolidine-2-carbonitrile]	9360	> 100	> 10	0.0739	13.7	> 100
CN(c1ccc2cnccc2c1)C1CCN(CC(=O)N2CCC[C@H]2C#N)CC1 [Example 314, (2S)-1-(2-(4-(isoquinolin-6-yl(methyl)amino)piperidin-1-yl)acetyl)pyrrolidine-2-carbonitrile]	531	2.47	> 10	0.0087	34.9	> 100
CN(c1ccc2ncccc2c1)C1CCN(CC(=O)N2C[C@@H](F)C[C@H]2C#N)CC1 [Example 315, (2S,4S)-4-fluoro-1-[2-[4-[methyl(6-quinolyl)amino]-1-piperidyl]acetyl]pyrrolidine-2-carbonitrile]	134	1.05	9.15	0.0017	5.77	> 10
